Test results from ChEMBL document CHEMBL4261500, “New tricks for human farnesyltransferase inhibitor: cancer and beyond” (Medchemcomm, 2017).

How the values were obtained:
[1] = target: Protein farnesyltransferase (Homo sapiens, UniProt P49354+P49356); assay: Inhibition of human EC17 cell-derived FTase using recombinant GST-tagged H-Ras/(3H)-FPP as substrate incubated for 1 hr by liquid scintillation counting method; format: protein-complex assay
A-431 = assay: Cytotoxicity against human A431 cells; format: cell-based
[2] = target: Protein farnesyltransferase (Rattus norvegicus, UniProt Q02293+Q04631); assay: Inhibition of recombinant rat FTase alpha/beta expressed in Escherichia coli using NBD-FPP/GST-tagged H-Ras as substrate incubated for 2 hrs by SDS-PAGE method
A549 = assay: Cytotoxicity against human A549 cells assessed as decrease in cell viability after 48 hrs by MTT assay; format: functional, cell-based; conditions: A549, 48 h

SMILES | IC50 [1] [µM] | IC50 (A-431) [µM] | IC50 [2] [µM] | IC50 (A549) [µM]
CC[C@@]1(O)C[C@H](O[C@H]2C[C@H]([N+](C)(C)Cc3ccccc3)[C@@H](O[C@H]3C[C@H](O)[C@H](O[C@H]4CCC(=O)[C@H](C)O4)[C@H](C)O3)[C@H](C)O2)c2c(cc3c(c2O)C(=O)c2c(O)cccc2C3=O)[C@H]1C(=O)OC | 0.86 | > 10 |  | 
COC1=C(OC)[C@H](O)[C@H](C/C=C(\C)CC/C=C(\C)CCC=C(C)C)[C@@H](C)C1=O [ANTROQUINONOL] |  |  | 2.99 | 3.24
